Results taken from US20230405063A1, “USE OF PROBIOTIC COMPONENT AND PHARMACEUTICAL COMPOSITION CONTAINING PROBIOTIC COMPONENT” (CHENGDU KUACHANGAOPU MEDICAL TECHNOLOGY CO., LTD., priority 2020, published 2023).

Assays:
lung tumor cells (A549) = assay: Tumor inhibition in A549 tumor-bearing nude mice, co-administration (Example 5, Table 7); assay type: in vivo; details: dosed once, 7th day, probiotic component = heat-inactivated Saccharomyces boulardii
Text: (§1) The method for determining the effect of combined drug administration in animal experiments was Burgi method (Burgi Y. Pharmacology; Drug actions and reactions. Cancerres. 1978, 38(2), 284-285). The Burgi method was modified by Zhengjun JIN (Zhengjun JIN, Equal probability and curve and “Q50”, Journal of the Second Shanghai Medical College; 1981, 1, 75-86) with q calculated as: q=EA+B/(EA+EB−EA×EB). In the following examples of the present invention, the combinational pharmaceutical efficacies (drug efficacies) of drug A and drug B co-administration was determined by ratio q of actual pharmaceutical efficacy (drug efficacy)/theoretical pharmaceutical efficacy (drug efficacy) according to Zhengjun JIN method, as follows.
Nude mice were used as experimental subjects, and lung tumor cells (A549) were used as modeling cells, 1×10^5 cells/mouse were injected into the right axilla subcutaneously for transplantation tumor modeling, and the average tumor volume of successfully modeled nude mice was 153.7 mm^3. The model animals were randomly divided into 18 groups, and the drugs were administered according to the drug components and administration route in Table 7. Each group was dosed once with an injection volume of […]. Wherein, the probiotic component was heat-inactivated Saccharomyces boulardii, and the administration route of group 16 was intra-tumoral injection of probiotic component followed by intra-tumoral injection of 10% arginine about 2 hours later. On the 7th day after drug administration, the animals were euthanized, and after dissection, the tumor tissue was taken out to determine the tumor weight, and the tumor inhibition rate (r) was calculated relative to the negative control group. Further, the actual efficacy/expected efficacy ratio q of a drug could also be calculated according to the therapeutic effect (tumor inhibition rate).

breast cancer 4T1 cells [1] = assay: Short-term tumor inhibition in 4T1 tumor-bearing BALB/c mice (Example 9, Table 14); assay type: in vivo; details: dosed twice, 7th day after final administration; for tumor inhibition rate rA: series A: intravenous injection; for tumor inhibition rate rB: series B: intratumoral injection
Text: as §1
BALB/c mice were used as experimental subjects, and breast cancer 4T1 cells were used as modeling cells. 0.5×10^6 cells/mouse were injected into the right axilla subcutaneously for transplantation tumor modeling, and the average tumor volume of successfully modeled nude mice was 160.1 mm^3. The model animals were randomly divided into 21 groups, and the drugs were administered by intravenous injection (series A) and intratumoral injection (series B) according to the drugs and doses in Table 14, respectively. All the drugs administered were aqueous liquids, which were formulated according to the method of Example 1. Each group was dosed twice. On the 7th day after final administration, the animals were euthanized, and the tumor tissues were taken out after dissection to determine the tumor weight, and the tumor inhibition rates rA and rB were calculated relative to the corresponding negative control groups in series A and series B.

breast cancer 4T1 cells [2] = assay: Extra-tumoral local administration in 4T1 tumor-bearing BALB/c mice, R7d/R21d (Example 11, Table 17); assay type: in vivo; details: subaxillary intradermal (extra-tumoral), twice at 7-day interval, 120 μl/mouse/time; for R7 d (relative tumor proliferation rate): day 7 after last dose; for R21 d (relative tumor proliferation rate): day 21 after last dose
Experimental: V=0.5×a×b^2, wherein a and b represent the length and width of the local lesion, respectively; Volume of the local lesion (e.g. tumor):
Local lesion (e.g., tumor) proliferation rate (R)=TV/CV×100, wherein TV and CV are the local lesion volumes in the study group and negative control group, respectively;
In the following examples of the present invention, the combinational pharmaceutical efficacies (drug efficacies) of drug A and drug B co-administration was determined by ratio q of actual pharmaceutical efficacy (drug efficacy)/theoretical pharmaceutical efficacy (drug efficacy) according to Zhengjun JIN method, as follows.
BALB/c mice were used as experimental subjects, and breast cancer 4T1 cells were used as modeling cells. 0.25×10^5 cells/mouse were injected into the right axilla subcutaneously for transplantation tumor modeling. On the 5th day after modeling, the test animals with visually obvious tumors were randomly divided into 12 groups, having 10 animals in each group. […] In groups 1-11, on days 7 and 21 after the last dose the tumor volume (V7d, V21d) were measured, and the relative tumor proliferation rates (R7d, R21d) were calculated relative to the negative control group on days 7 and 21 after the dose, so that the short-term therapeutic effectiveness (100%−R7d) and the medium- and long-term therapeutic effectiveness (100%−R21d) could be calculated, respectively. Further, based on the short-term therapeutic effectiveness and the medium- and long-term therapeutic effectiveness, the actual/expected ratio for short-term pharmaceutical efficacies q7d and the actual/expected ratio for medium- and long-term pharmaceutical efficacies q21d were calculated respectively.

breast cancer 4T1 cells [3] = assay: Tumor inhibition rate r′10d, r′30d in 4T1 tumor-bearing BALB/c mice (Example 12, Table 18, series A); assay type: in vivo; details: series A modeled mice, intratumoral injection twice at 3-day interval, 50 ul/mouse/time; for Series A r′10d (tumor inhibition rate): 10th day after 1st administration; for Series A r′30d (tumor inhibition rate): 30th day after 1st administration
Experimental: (§2) BALB/c mice were used as experimental subjects, in which modeled animals were used as series A and unmodeled animals as series B. Breast cancer 4T1 cells were use as modeling cells for modeled animals. 0.25×10^5 cells/animal were injected into the right axilla subcutaneously for transplantation tumor modeling, and the average tumor volume of successfully modeled nude mice was 173.6 mm^3. The modeled animals were randomly divided into 18 groups, with 10 animals in each group, and the drugs according to Table 18 was administered via intratumoral injection. BALB/c mice were additionally taken as experimental subjects without modeling, and randomly divided into 18 groups, with 10 animals in each group, the drugs according to Table 18 was administered via intramuscular injection into the right hind thigh. All the study drugs comprising probiotic components were formulated as aqueous formulations according to the preparation method of Example 1, and the other drugs were formulated as aqueous solutions according to the existing well-known methods. Each group was administered twice at an interval of 3 days, and the dosage was 50 ul/mouse/time.
On the 30th day after the first administration, each group of series A and each group of series B were subcutaneous cell transplantation of 1×10^5 breast cancer 4T1 cells/mouse and 0.2×10^5 fibroblast 3T3 cells/mouse respectively to left anterior axilla and left posterior axilla. The tumor incidence rates of 4T1 cell transplantation (S4T1) and of 3T3 cell transplantation (S3T3) in each group were observed on the 10th day after the cell transplantation, wherein the tumor incidence rate S=(number of tumor-bearing animals/number of cell transplanted animals)×100%.

fibroblast 3T3 cells = assay: Tumor incidence rate after 3T3 cell transplantation (S3T3) on day 30 (Example 12, Table 18); assay type: in vivo, BALB/c mice; details: cells transplanted on 30th day, observed 10th day after transplantation; for Series A S3T3 (tumor incidence rate of 3T3 cell transplantation): series A modeled mice, intratumoral injection; for Series B S3T3 (tumor incidence rate of 3T3 cell transplantation): series B unmodeled mice, intramuscular injection into right hind thigh
Experimental: as §2, with “Breast cancer 4T1 cells were use as modeling cells for modeled animals. 0.25×10^5 cells/animal were injected into the right axilla subcutaneously for transplantation tumor modeling, and the average tumor volume of successfully modeled nude mice was 173.6 mm^3.” left out

[4] = intratumoral injection, '+' = arginine injected about 2 hours later

In the case of `O=c1[nH]cc(F)c(=O)[nH]1` [1% 5-fluorouracil, 5-fluorouracil], the “Tumor inhibition rate r” value (lung tumor cells (A549); [4]) is reported as 46.6%, the “Tumor weight (x ± s)” value (lung tumor cells (A549); [4]) is reported as 0.116 ± 0.076 g and the “Tumor inhibition rate r” value (lung tumor cells (A549); intravenous injection) is reported as 41.3%. For the same molecule, the “Tumor weight (x ± s)” value (lung tumor cells (A549); intravenous injection) was 0.122 ± 0.065 g, the “tumor inhibition rate rA” value (breast cancer 4T1 cells [1]) was 38.1% and the “tumor inhibition rate rB” value (breast cancer 4T1 cells [1]) was 44.1%. For the same molecule, the “R7 d (relative tumor proliferation rate)” value (breast cancer 4T1 cells [2]) was 73%, the “R21 d (relative tumor proliferation rate)” value (breast cancer 4T1 cells [2]) was 93% and the “Series A r′10d (tumor inhibition rate)” value (breast cancer 4T1 cells [3]) was 38.5%. The “Series A r′30d (tumor inhibition rate)” value (breast cancer 4T1 cells [3]) was 6.1%, the “Series A S3T3 (tumor incidence rate of 3T3 cell transplantation)” value (fibroblast 3T3 cells) was 100% and the “Series B S3T3 (tumor incidence rate of 3T3 cell transplantation)” value (fibroblast 3T3 cells) was 100%.

For `CCO` [75% ethanol, ethanol], the “Tumor inhibition rate r” value (lung tumor cells (A549); [4]) was 33.7%, the “Tumor weight (x ± s)” value (lung tumor cells (A549); [4]) was 0.145 ± 0.084 g and the “Tumor inhibition rate r” value (lung tumor cells (A549); intravenous injection) was 2.7%. The “Tumor weight (x ± s)” value (lung tumor cells (A549); intravenous injection) was 0.203 ± 0.095 g, the “tumor inhibition rate rA” value (breast cancer 4T1 cells [1]) was 2.8% and the “tumor inhibition rate rB” value (breast cancer 4T1 cells [1]) was 21.3%. The “R7 d (relative tumor proliferation rate)” value (breast cancer 4T1 cells [2]) was 92%, the “R21 d (relative tumor proliferation rate)” value (breast cancer 4T1 cells [2]) was 107% and the “Series A r′10d (tumor inhibition rate)” value (breast cancer 4T1 cells [3]) was 42.1%. For the same molecule, the “Series A r′30d (tumor inhibition rate)” value (breast cancer 4T1 cells [3]) was 3.2%, the “Series A S3T3 (tumor incidence rate of 3T3 cell transplantation)” value (fibroblast 3T3 cells) was 100% and the “Series B S3T3 (tumor incidence rate of 3T3 cell transplantation)” value (fibroblast 3T3 cells) was 100%.
